Laboratory results taken from patent US11427783B2, “Perfuming compositions” (Firmenich SA, priority 2016, dated 2022).
Read-outs that look alike come from different tables or passages of the source.

Test: Volatility of perfuming compounds in air
Assay type: physicochemical
[1] = Table 10, perfuming compounds having a woody note
[2] = Table 5, perfuming compounds having a green note
[3] = Table 6, perfuming compounds having a fruity note
[4] = Table 8, perfuming compounds having a sweet note
[5] = Table 9, perfuming compounds having a gourmand note

## CC1C(C)(C)C2=C(C(=O)CCC2)C1(C)C (stereo not drawn)
[1]
  Volatility (μg/l air): 29.81 μg/l air

## CC1CC(C)(C)OC(Cc2ccccc2)O1 (stereo not drawn)
[2]
  Volatility: 29.99 μg/l air

## COc1nccnc1CCCC(C)C
[2]
  Volatility: 195.24 μg/l air

## CCC(C)C1(C)COC(C2CCC(C)=CC2C)OC1 (stereo not drawn)
[1]
  Volatility (μg/l air): 3.82 μg/l air

## CC(=O)OCCC1=CCC2CC1C2(C)C (stereo not drawn)
[1]
  Volatility (μg/l air): 60.02 μg/l air

## CC1CC(C)(c2ccccc2)OC(C)O1 (stereo not drawn)
[3]
  Volatility (μg/l air): 113.83 μg/l air

## CC1(C)CCC[C@@]2(C)[C@H]1CC[C@@]1(C)OCC[C@@H]21
[1]
  Volatility (μg/l air): 9.23 μg/l air

## COC(OC)C(C)(C)CC=C(C)C
[1]
  Volatility (μg/l air): 1311.32 μg/l air

## CC(C)=CC1CC(C)CCO1 (stereo not drawn)
[2]
  Volatility: 2483.93 μg/l air

## CC(=O)O[C@@H]1CC2CC[C@]1(C)C2(C)C
[1]
  Volatility (μg/l air): 735.37 μg/l air

## CC1=CC[C@H](C(C)CC2CCCC2=O)CC1 (stereo partly drawn)
[3]
  Volatility (μg/l air): 2.05 μg/l air
[4]
  Volatility (μg/l air): 2.05 μg/l air
[5]
  Volatility (μg/l air): 2.05 μg/l air

## CC1(CO)CC1CC1CC2CC2(C)C1(C)C (stereo not drawn)
[1]
  Volatility (μg/l air): 1.74 μg/l air

## C=C/C=C/C=C\CCCCC
[2]
  Volatility: 1247.28 μg/l air

## Cc1ccc(OCC=O)cc1
[2]
  Volatility: 89.41 μg/l air

## CC1=CCC(/C=C/C(C)C(C)O)C1(C)C (stereo not drawn)
[1]
  Volatility (μg/l air): 20.41 μg/l air

## CC(C)=CCC/C(C)=C/CO
Table 7, citrus note
  Volatility: 89.88 μg/l air

## CC(C)=CCC/C(C)=C\CO
Table 7, citrus note
  Volatility: 86.02 μg/l air

## C[C@@H]1CC[C@H]2C(C)(C)[C@H]3C[C@@]12C[C@@H]1OC(C)(C)O[C@@]13C
[1]
  Volatility (μg/l air): 0.00 μg/l air

## C[C@H]1[C@@H]2C[C@H](C[C@@]13C=CC(=O)CC3)C2(C)C
[3]
  Volatility (μg/l air): 4.14 μg/l air
[1]
  Volatility (μg/l air): 4.14 μg/l air

## C=C(C)[C@@H]1CC=C(CO)CC1
[2]
  Volatility: 33.78 μg/l air

## 3,7-DIMETHYL-2,6-NONADIENENITRILE (A) + 3,7-DIMETHYL-3,6-NONADIENENITRILE (B)
[2]
  Volatility: 78.89 μg/l air

## CCC(O)COC1CCCCC1C(C)(C)C (racemic)
[1]
  Volatility (μg/l air): 205.05 μg/l air

## CCCC(O)CCC1C(C)CCC(C)C1(C)C (racemic)
[1]
  Volatility (μg/l air): 3.42 μg/l air

## C=C1C2CCC(C)(OCC)C1CCC2(C)C (racemic)
[1]
  Volatility (μg/l air): 135.00 μg/l air

## CCC(=CCC1CC=C(C)C1(C)C)CO (racemic)
[1]
  Volatility (μg/l air): 3.69 μg/l air

## CCC(C)(O)CCCC(C)C (racemic)
[2]
  Volatility: 421.15 μg/l air

## CC1OCCC12NCCS2 (racemic)
[4]
  Volatility (μg/l air): 52.47 μg/l air

## COC(C)(C)CCCC(C)C(C)O (racemic)
[1]
  Volatility (μg/l air): 35.54 μg/l air

## COC(=O)C1C(C)=CCCC1(C)C (racemic)
[2]
  Volatility: 2010.91 μg/l air

## CC1CCCC2(C)CCCCC12O (racemic)
[2]
  Volatility: 330.48 μg/l air

## CC(=O)/C(C)=C(/C)C(C)C(C)(C)C (racemic)
[1]
  Volatility (μg/l air): 659.22 μg/l air

## COC(=O)OC1CC/C=C\CCC1 (racemic)
[2]
  Volatility: 278.83 μg/l air

## C=C1CCCC(C)(C)C1C(=O)/C=C/C (racemic)
[4]
  Volatility (μg/l air): 152.99 μg/l air
[5]
  Volatility (μg/l air): 152.99 μg/l air

## CC(=O)/C(C)=C/C1C(C)=CCCC1(C)C (racemic)
[3]
  Volatility (μg/l air): 36.33 μg/l air
[1]
  Volatility (μg/l air): 106.28 μg/l air

## CCCC(S)CCOC (racemic) [(+−)-1-METHOXY-3-HEXANETHIOL]
[2]
  Volatility: 2534.77 μg/l air

## CCCCCC1CCCC1O (racemic) [(+−)-2-PENTYL-1-CYCLOPENTANOL]
[4]
  Volatility (μg/l air): 97.79 μg/l air

## CCC(C)C(=O)OCCc1ccccc1 (racemic) [(+−)-2-PHENYLETHYL 2-METHYLBUTANOATE]
[3]
  Volatility (μg/l air): 37.73 μg/l air

## CC(CC=O)CC(C)(C)C (racemic) [(+−)-3,5,5-TRIMETHYLHEXANAL]
[2]
  Volatility: 12045.92 μg/l air

## CC(CC=O)c1ccccc1 (racemic) [(+−)-3-PHENYLBUTANAL]
[2]
  Volatility: 227.83 μg/l air

## CCCCCCC1CCC(=O)O1 (racemic) [(+−)-4-DECANOLIDE]
[3]
  Volatility (μg/l air): 10.49 μg/l air
[4]
  Volatility (μg/l air): 10.49 μg/l air
[5]
  Volatility (μg/l air): 10.49 μg/l air

## CCCC1CCC(=O)O1 (racemic) [(+−)-4-HEPTANOLIDE]
[4]
  Volatility (μg/l air): 295.34 μg/l air

## CCCCCC1CCC(=O)O1 (racemic) [(+−)-4-NONANOLIDE]
[3]
  Volatility (μg/l air): 27.42 μg/l air
[5]
  Volatility (μg/l air): 27.42 μg/l air

## CCCCC1CCC(=O)O1 (racemic) [(+−)-4-OCTANOLIDE]
[3]
  Volatility (μg/l air): 108.41 μg/l air
[5]
  Volatility (μg/l air): 108.41 μg/l air

## CC1=CCC(C(C)(C)O)CC1 (racemic) [(+−)-ALPHA-TERPINEOL]
[1]
  Volatility (μg/l air): 172.78 μg/l air

## CCCCC[C@@H]1OC(=O)C[C@H]1C (racemic) [(+−)-TRANS-3-METHYL-4-NONANOLIDE]
[3]
  Volatility (μg/l air): 21.05 μg/l air
[4]
  Volatility (μg/l air): 21.05 μg/l air
[5]
  Volatility (μg/l air): 21.05 μg/l air

## CCC(=O)OCC(C)(C)OC(C)C1CCCC(C)(C)C1 (single isomer, unassigned; (+))
[3]
  Volatility (μg/l air): 4.39 μg/l air

## COC(OC)C(C)c1ccccc1 (stereo not drawn) [1,1-DIMETHOXY-2-PHENYLPROPANE]
[2]
  Volatility: 376.94 μg/l air

## CCCC(=O)OC(C)(C)Cc1ccccc1 [1,1-DIMETHYL-2-PHENYLETHYL BUTANOATE]
[3]
  Volatility (μg/l air): 34.65 μg/l air
[4]
  Volatility (μg/l air): 34.65 μg/l air
[5]
  Volatility (μg/l air): 34.65 μg/l air

## COc1ccc(C(C)=O)cc1 [1-(4-METHOXYPHENYL)-1-ETHANONE”]
[2]
  Volatility: 50.21 μg/l air

## CCCCCCCCCCO [1-DECANOL]
[2]
  Volatility: 31.90 μg/l air

## CCCOC(C)OCCc1ccccc1 (stereo not drawn) [1-PHENYL-2-(1-PROPOXYETHOXY)ETHANE]
[2]
  Volatility: 59.63 μg/l air

## CCCCCCO [1-hexanol]
[2]
  Volatility: 2070.00 μg/l air

## CC(=O)c1ccccc1 [1-phenylethanone]
[4]
  Volatility (μg/l air): 1728.98 μg/l air

## Cc1cnc(C)c(C)n1 [2,3,5-TRIMETHYLPYRAZINE]
[4]
  Volatility (μg/l air): 7897.31 μg/l air

## COc1cccc(OC)c1O [2,6-DIMETHOXYPHENOL]
[4]
  Volatility (μg/l air): 19.23 μg/l air
[5]
  Volatility (μg/l air): 19.23 μg/l air

## c1ccc(CCCc2ccccn2)cc1 [2-(3-PHENYLPROPYL)PYRIDINE]
[2]
  Volatility: 3.83 μg/l air

## Cc1ncsc1CCO [2-(4-METHYL-1,3-THIAZOL-5-YL)-1-ETHANOL]
[4]
  Volatility (μg/l air): 2.36 μg/l air

## O=c1ccc2ccccc2o1 [2-CHROMENONE]
[4]
  Volatility (μg/l air): 0.51 μg/l air
[5]
  Volatility (μg/l air): 0.51 μg/l air

## CC(=O)OCCC1CCCCC1 [2-CYCLOHEXYLETHYL ACETATE]
[4]
  Volatility (μg/l air): 489.45 μg/l air
[5]
  Volatility (μg/l air): 489.45 μg/l air

## CCc1occc(=O)c1O [2-ETHYL-3-HYDROXY-4(4H)-PYRANONE]
[3]
  Volatility (μg/l air): 48.86 μg/l air
[4]
  Volatility (μg/l air): 48.86 μg/l air

## SCc1ccco1 [2-FURANMETHANETHIOL]
[4]
  Volatility (μg/l air): 29677.31 μg/l air

## CC1=C(O)C(=O)CC1 [2-HYDROXY-3-METHYL-2-CYCLOPENTEN-1-ONE]
[4]
  Volatility (μg/l air): 396.50 μg/l air

## CC(C)Cc1ccc2ccccc2n1 [2-ISOBUTYLQUINOLINE]
[4]
  Volatility (μg/l air): 8.73 μg/l air

## COc1cc(C)ccc1O [2-METHOXY-4-METHYLPHENOL]
[4]
  Volatility (μg/l air): 306.61 μg/l air

## CCCC1CCC(O)C(OC)C1 (stereo not drawn) [2-METHOXY-4-PROPYL-1-CYCLOHEXANOL]
  Volatility: 189.74 μg/l air

## CCCC(=NO)C(C)C [2-METHYL-3-HEXANONE OXIME]
[2]
  Volatility: 687.75 μg/l air

## OCCc1ccccc1 [2-PHENYLETHANOL]
[4]
  Volatility (μg/l air): 159.75 μg/l air
[5]
  Volatility (μg/l air): 159.75 μg/l air

## CC(=O)OCCc1ccccc1 [2-PHENYLETHYL ACETATE]
[4]
  Volatility (μg/l air): 201.26 μg/l air
[5]
  Volatility (μg/l air): 201.26 μg/l air

## CC(C)C(=O)OCCc1ccccc1 [2-PHENYLETHYL ISOBUTYRATE]
[3]
  Volatility (μg/l air): 67.38 μg/l air
[4]
  Volatility (μg/l air): 67.38 μg/l air
[5]
  Volatility (μg/l air): 67.38 μg/l air

## CC(C)(C)C(=O)OCCc1ccccc1 [2-PHENYLETHYL PIVALATE]
[3]
  Volatility (μg/l air): 71.44 μg/l air
[4]
  Volatility (μg/l air): 71.44 μg/l air
[5]
  Volatility (μg/l air): 71.44 μg/l air

## COc1ccc(OC)c(C(C)(C)C)c1 [2-TERT-BUTYL-1,4-DIMETHOXYBENZENE]
[1]
  Volatility (μg/l air): 82.95 μg/l air

## CC(=O)OCCC(C)CCC=C(C)C (stereo not drawn) [3,7-DIMETHYL-6-OCTENYL ACETATE]
[3]
  Volatility (μg/l air): 128.72 μg/l air

## CCCC=C1OC(=O)c2ccccc21 [3-BUTYLIDENE-1-BENZO[C]FURANONE]
[4]
  Volatility (μg/l air): 14.37 μg/l air
[5]
  Volatility (μg/l air): 14.37 μg/l air

## Cc1occc(=O)c1O [3-HYDROXY-2-METHYL-4(4H)-PYRANONE]
[3]
  Volatility (μg/l air): 92.42 μg/l air
[4]
  Volatility (μg/l air): 92.42 μg/l air
